Source: patent publication US12528802B2, “Heterocyclic compound” (Takeda Pharmaceutical Company Limited, priority 2019, dated 2026)

Target: T1, glucosylceramide synthase (Homo sapiens, UniProt Q16739)
T1 construct: made in house; host or cells: Expi293F cells (transient expression, pcDNA3.3-TOPO vector); microsome fraction used as enzyme source
T1 sequence (Q16739 1-394): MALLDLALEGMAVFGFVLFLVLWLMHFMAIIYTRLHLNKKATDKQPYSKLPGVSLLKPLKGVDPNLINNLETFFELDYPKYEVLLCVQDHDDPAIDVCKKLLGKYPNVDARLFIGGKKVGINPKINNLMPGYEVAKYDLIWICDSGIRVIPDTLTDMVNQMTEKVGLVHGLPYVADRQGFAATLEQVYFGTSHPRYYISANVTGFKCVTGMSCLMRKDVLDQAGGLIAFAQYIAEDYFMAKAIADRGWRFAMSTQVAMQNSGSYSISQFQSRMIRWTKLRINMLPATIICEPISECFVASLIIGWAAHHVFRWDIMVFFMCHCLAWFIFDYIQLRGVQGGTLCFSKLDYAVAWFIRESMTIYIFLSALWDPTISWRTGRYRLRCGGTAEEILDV
Assay: Glucosylceramide synthase (GCS) enzyme assay, microsome fraction, C8 glucosylceramide quantified by Rapidfire MS/MS
Format: biochemical
Details: test compound 10 μM; 1.7 μM UDP-glucose, 3 μM C8 ceramide; room temperature 60 min; read-out: GCS enzyme inhibitory rate at 10 μM (%) (% of control)
Procedure, shortened: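 Test compound, 10 μM final, was run against human GCS from transfected Expi293F microsome fractions, using substrate solution of 6 μM C8 ceramide (in DOPC liposomes) plus 3.4 μM UDP-glucose, pH 7.5 Tris buffer, 60 min, room temperature. Product C8 glucosylceramide measured by Rapidfire MS/MS against an internal standard, % inhibition referenced to no-enzyme and DMSO wells.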

SMILES | inhibition at 10 µM
N#Cc1ccc(N2Cc3cnn(-c4ccccc4OCC(F)(F)F)c3C2)nc1 [Example 216, 6-{1-[2-(2,2,2-trifluoroethoxy)phenyl]-4,6-dihydropyrrolo[3,4-c]pyrazol-5(1H)-yl}pyridine-3-carbonitrile] | 98%
CN(C)C(=O)c1ccc(N2Cc3cnn(-c4ccccc4OCC(F)(F)F)c3C2)cc1 [Example 217, N,N-dimethyl-4-{1-[2-(2,2,2-trifluoroethoxy)phenyl]-4,6-dihydropyrrolo[3,4-c]pyrazol-5(1H)-yl}benzamide] | 98%
N#CC1(c2ccc(N3Cc4c(ccnc4-c4ccc(F)cc4OCC(F)(F)F)C3=O)cc2)CCOCC1 [Example 218, 4-(4-{4-[4-fluoro-2-(2,2,2-trifluoroethoxy)phenyl]-1-oxo-1,3-dihydro-2H-pyrrolo[3,4-c]pyridin-2-yl}phenyl)oxan-4-carbonitrile] | 99%
O=C1c2ccnc(-c3ccc(F)cc3OCC(F)(F)F)c2CN1c1ccc(C2(O)CCOCC2)c(F)c1 [Example 219, 2-[3-fluoro-4-(4-hydroxyoxan-4-yl)phenyl]-4-[4-fluoro-2-(2,2,2-trifluoroethoxy)phenyl]-2,3-dihydro-1H-pyrrolo[3,4-c]pyridin-1-one] | 98%
O=C1c2ccnc(-c3ccc(F)cc3OCC(F)(F)F)c2CN1c1ccc(C2(O)COC2)c(F)c1 [Example 220, 2-[3-fluoro-4-(3-hydroxyoxetan-3-yl)phenyl]-4-[4-fluoro-2-(2,2,2-trifluoroethoxy)phenyl]-2,3-dihydro-1H-pyrrolo[3,4-c]pyridin-1-one] | 89%
CC(C)(C)[Si](C)(C)OC1(c2ccc(N3Cc4c(ccnc4-c4ccccc4OCC(F)(F)F)C3=O)cc2)CC1 [Example 221, 2-[4-(1-{[tert-butyl(dimethyl)silyl]oxy}cyclopropyl)phenyl]-4-[2-(2,2,2-trifluoroethoxy)phenyl]-2,3-dihydro-1H-pyrrolo[3,4-c]pyridin-1-one] | 99%
O=C1c2ccnc(-c3ccccc3OCC(F)(F)F)c2CN1c1ccc(C2(O)CC2)cc1 [Example 222, 2-[4-(1-hydroxycyclopropyl)phenyl]-4-[2-(2,2,2-trifluoroethoxy)phenyl]-2,3-dihydro-1H-pyrrolo[3,4-c]pyridin-1-one] | 100%
CC(C)(C)[Si](C)(C)OC1(c2ccc(N3Cc4c(ccnc4-c4ccc(F)cc4OCC(F)(F)F)C3=O)cc2)CC1 [Example 224, 2-[4-(1-{[tert-butyl(dimethyl)silyl]oxy}-cyclopropyl)phenyl]-4-[4-fluoro-2-(2,2,2-trifluoroethoxy)phenyl]-2,3-dihydro-1H-pyrrolo[3,4-c]pyridin-1-one] | 99%
O=C1c2ccnc(-c3ccc(F)cc3OCC(F)(F)F)c2CN1c1ccc(C2(O)CC2)cc1 [Example 225, 4-[4-fluoro-2-(2,2,2-trifluoroethoxy)phenyl]-2-[4-(l-hydroxycyclopropyl)phenyl]-2,3-dihydro-1H-pyrrolo[3,4-c]pyridin-1-one] | 94%
O=C1c2ccnc(-c3ccc(F)cc3OCC(F)(F)F)c2CN1c1ccc(C2(F)COC2)cc1 [Example 226, 2-[4-(3-fluorooxetan-3-yl)phenyl]-4-[4-fluoro-2-(2,2,2-trifluoroethoxy)phenyl]-2,3-dihydro-1H-pyrrolo[3,4-c]pyridin-1-one] | 96%
O=C1c2ccnc(-c3ccccc3OCC(F)(F)F)c2CN1c1ccc(C2(O)CC(OCc3ccccc3)C2)cc1 (stereo not drawn) [Example 227, (cis or trans)-2-{4-[3-(benzyloxy)-1-hydroxycyclobutyl]phenyl}-4-[2-(2,2,2-trifluoroethoxy)phenyl]-2,3-dihydro-1H-pyrrolo[3,4-c]pyridin-1-one] | 100%
O=C1c2ccnc(-c3ccccc3OCC(F)(F)F)c2CN1c1ccc(C2(O)CC(O)C2)cc1 (stereo not drawn) [Example 228, (cis or trans)-2-[4-(1,3-dihydroxycyclobutyl)phenyl]-4-[2-(2,2,2-trifluoroethoxy)phenyl]-2,3-dihydro-1H-pyrrolo[3,4-c]pyridin-1-one] | 86%
CC(C)(O)Cc1ccc(N2Cc3c(ccnc3-c3ccccc3OCC(F)(F)F)C2=O)cc1 [Example 229, 2-[4-(2-hydroxy-2-methylpropyl)phenyl]-4-[2-(2,2,2-trifluoroethoxy)phenyl]-2,3-dihydro-1H-pyrrolo[3,4-c]pyridin-1-one] | 99%
CN(C)C(=O)c1ccc(N2Cc3cnn(-c4ccccc4OCC(F)(F)F)c3C2)nc1 [Example 230, N,N-dimethyl-6-{1-[2-(2,2,2-trifluoroethoxy)phenyl]-4,6-dihydropyrrolo[3,4-c]pyrazol-5(1H)-yl}pyridine-3-carboxamide] | 73%
CN(C)C(=O)c1ccc(N2Cc3cnn(-c4ccc(F)cc4OCC(F)(F)F)c3C2)nc1 [Example 231, 6-{1-[4-fluoro-2-(2,2,2-trifluoroethoxy)phenyl]-4,6-dihydropyrrolo[3,4-c]pyrazol-5(1H)-yl}-N,N-dimethylpyridine-3-carboxamide] | 61%
CC(C)(O)COc1ccc(N2Cc3c(ccnc3-c3ccccc3OCC(F)(F)F)C2=O)cn1 [Example 233, 2-[6-(2-hydroxy-2-methylpropoxy)pyridin-3-yl]-4-[2-(2,2,2-trifluoroethoxy)phenyl]-2,3-dihydro-1H-pyrrolo[3,4-c]pyridin-1-one] | 96%
CC(C)(O)c1ccc(N2Cc3c(ccnc3-c3ccc(F)cc3OCC(F)(F)F)C2=O)nc1 [Example 234, 4-[4-fluoro-2-(2,2,2-trifluoroethoxy)phenyl]-2-[5-(2-hydroxypropan-2-yl)pyridin-2-yl]-2,3-dihydro-1H-pyrrolo[3,4-c]pyridin-1-one] | 99%
Cn1cc2c(c(-c3ccccc3OCC(F)(F)F)c1=O)CN(c1ccc(OC(F)F)cc1)C2=O [Example 236, 2-[4-(difluoromethoxy)phenyl]-5-methyl-7-[2-(2,2,2-trifluoroethoxy)phenyl]-1H-pyrrolo[3,4-c]pyridine-3,6(2H,5H)-dione] | 100%
N#CCc1ccc(N2Cc3c(ccnc3-c3ccc(F)cc3OCC(F)(F)F)C2=O)cc1 [Example 237, (4-{4-[4-fluoro-2-(2,2,2-trifluoroethoxy)phenyl]-1-oxo-1,3-dihydro-2H-pyrrolo[3,4-c]pyridin-2-yl}phenyl)acetonitrile] | 91%
Cn1nc(N2Cc3c(ccnc3-c3ccc(F)cc3OCC(F)(F)F)C2=O)cc1C1CC1 [Example 239, 2-(5-cyclopropyl-1-methyl-1H-pyrazol-3-yl)-4-[4-fluoro-2-(2,2,2-trifluoroethoxy)phenyl]-2,3-dihydro-1H-pyrrolo[3,4-c]pyridin-1-one] | 51%
CC(C)(O)c1ccc(N2Cc3c(ccnc3-c3ccc(F)cc3OCC(F)F)C2=O)cc1 [Example 241, 4-[2-(2,2-difluoroethoxy)-4-fluorophenyl]-2-[4-(2-hydroxypropan-2-yl)phenyl]-2,3-dihydro-1H-pyrrolo[3,4-c]pyridin-1-one] | 98%
O=C1c2ccnc(-c3ccccc3OCC(F)(F)F)c2CN1c1ccc(C2(O)CCOCC2)cc1 [Example 242, 2-[4-(4-hydroxyoxan-4-yl)phenyl]-4-[2-(2,2,2-trifluoroethoxy)phenyl]-2,3-dihydro-1H-pyrrolo[3,4-c]pyridin-1-one] | 100%
N#CC1(c2ccc(N3Cc4c(ccnc4-c4ccc(F)cc4OCC(F)(F)F)C3=O)cc2)CC1 [Example 244, 1-(4-{4-[4-fluoro-2-(2,2,2-trifluoroethoxy)phenyl]-1-oxo-1,3-dihydro-2H-pyrrolo[3,4-c]pyridin-2-yl}phenyl)cyclopropane-1-carbonitrile] | 89%
O=C1c2ccnc(-c3ccc(F)cc3OCC(F)(F)F)c2CN1c1ccc(C(O)(C(F)F)C(F)F)cc1 [Example 245, 4-[4-fluoro-2-(2,2,2-trifluoroethoxy)phenyl]-2-[4-(1,1,3,3-tetrafluoro-2-hydroxypropan-2-yl)phenyl]-2,3-dihydro-1H-pyrrolo[3,4-c]pyridin-1-one] | 100%
O=C1c2ccnc(-c3ccccc3OCC(F)(F)F)c2CN1c1ccc(C(O)(C(F)F)C(F)F)cc1 [Example 246, 2-[4-(1,1,3,3-tetrafluoro-2-hydroxypropan-2-yl)phenyl]-4-[2-(2,2,2-trifluoroethoxy)phenyl]-2,3-dihydro-1H-pyrrolo[3,4-c]pyridin-1-one] | 100%
O=C1c2ccnc(-c3ccccc3OCC(F)(F)F)c2CN1c1cnn(CC2(F)COC2)c1 [Example 247, 2-{1-[(3-fluorooxetan-3-yl)methyl]-1H-pyrazol-4-yl}-4-[2-(2,2,2-trifluoroethoxy)phenyl]-2,3-dihydro-1H-pyrrolo[3,4-c]pyridin-1-one] | 97%
O=C1c2ccnc(-c3ccccc3OCC(F)(F)F)c2CN1c1cnn(CC2(F)CC2)c1 [Example 248, 2-{1-[(1-fluorocyclopropyl)methyl]-1H-pyrazol-4-yl}-4-[2-(2,2,2-trifluoroethoxy)phenyl]-2,3-dihydro-1H-pyrrolo[3,4-c]pyridin-1-one] | 99%
O=C1c2ccnc(-c3ccccc3OCC(F)(F)F)c2CN1c1ccc(C2(O)COC2)cn1 [Example 252, 2-[5-(3-hydroxyoxetan-3-yl)pyridin-2-yl]-4-[2-(2,2,2-trifluoroethoxy)phenyl]-2,3-dihydro-1H-pyrrolo[3,4-c]pyridin-1-one] | 98%
